Laboratory results reported in ChEMBL document CHEMBL1201862, “PubChem BioAssay data set” (2004).
Active and inactive are the calls of the source.

Tests used:
[1] = cytotoxicity toward NIH3T3 fibroblasts, dose response, counter-screen, cell-based, ATP luminescence, mouse fibroblasts (AID 2010); type: functional;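 note: cells exposed to compound for about 90 hours before reading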
[2] = inhibitors of intracellular T. cruzi replication, confirmation, NIH3T3 host cells, beta-gal luminescence (AID 2044); type: functional, cell-based;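 note: intracellular parasites grown in NIH/3T3 mouse fibroblasts as host cells; luminescent beta-galactosidase reporter signal from transgenic T. cruzi replicating inside host cells; inhibitors lower the luminescence signal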
Jurkat = test: antigen receptor-induced NF-kB inhibitors, dose response, Jurkat, luciferase reporter, luminescence, B- and T-cell (AID 489004); type: functional, cell-based; details: Homo sapiens;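 note: NF-kB luciferase reporter Jurkat cells stimulated with PMA plus ionomycin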
INS1 = test: beta cell apoptosis inhibitors, cytokine rescue, dose response, luminescence, retest (AID 449756); type: functional, cell-based; details: Rattus norvegicus;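 note: cell death triggered by IL-1 beta plus TNF-alpha plus IFN-gamma mixture; protective hits raise ATP signal compared with cytokine alone wells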
[3] = molecular target: T1, High affinity choline transporter 1 (Homo sapiens, UniProt Q9GZV3); test: CHT activators, dose response, cell-based, 10-point CRC, membrane potential dye (AID 602376); type: functional
T1 sequence (Q9GZV3 whole entry): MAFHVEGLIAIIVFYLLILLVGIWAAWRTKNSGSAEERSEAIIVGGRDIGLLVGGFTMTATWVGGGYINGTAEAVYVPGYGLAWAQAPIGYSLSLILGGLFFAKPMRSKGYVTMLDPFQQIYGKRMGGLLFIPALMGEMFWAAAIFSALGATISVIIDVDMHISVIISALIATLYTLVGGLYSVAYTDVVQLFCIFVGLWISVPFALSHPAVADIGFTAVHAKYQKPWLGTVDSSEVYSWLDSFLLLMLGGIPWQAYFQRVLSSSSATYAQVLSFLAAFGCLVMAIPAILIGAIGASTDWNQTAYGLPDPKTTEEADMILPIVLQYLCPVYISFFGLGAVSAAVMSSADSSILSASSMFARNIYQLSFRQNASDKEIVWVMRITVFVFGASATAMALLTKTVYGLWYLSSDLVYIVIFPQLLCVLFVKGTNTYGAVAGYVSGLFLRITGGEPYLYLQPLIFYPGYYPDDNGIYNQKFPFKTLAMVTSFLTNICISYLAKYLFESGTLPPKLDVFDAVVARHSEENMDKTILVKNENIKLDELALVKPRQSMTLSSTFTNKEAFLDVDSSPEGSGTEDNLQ

[4] = cytotoxicity in HEK-293T NF-kB-Luc cells, dose response, cytotoxicity control for B/T-cell NF-kB inhibitor project, cell-based, uHTS hits (AID 489019); type: functional;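 note: IC50 reflects cytotoxicity as loss of cell viability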
Melanocortin receptor 4 = Melanocortin receptor 4 (Homo sapiens, UniProt P32245); test: MC4R antagonist potency on cAMP, dose response, cell-based, TR-FRET, biased antagonists (AID 602298); type: functional;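 note: antagonist potency against agonist-stimulated cAMP production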
Streptokinase A = molecular target: T2, Streptokinase A (Streptococcus pyogenes serotype M1, UniProt P10520); test: S. pyogenes streptokinase expression inhibitors, potency, dose response, plasminogen activation absorbance, OD405 (AID 1914); type: functional, Streptococcus pyogenes M1 GAS;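 note: secreted streptokinase activity via plasminogen activation per viability signal from cell pellet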
T2 sequence (P10520 whole entry): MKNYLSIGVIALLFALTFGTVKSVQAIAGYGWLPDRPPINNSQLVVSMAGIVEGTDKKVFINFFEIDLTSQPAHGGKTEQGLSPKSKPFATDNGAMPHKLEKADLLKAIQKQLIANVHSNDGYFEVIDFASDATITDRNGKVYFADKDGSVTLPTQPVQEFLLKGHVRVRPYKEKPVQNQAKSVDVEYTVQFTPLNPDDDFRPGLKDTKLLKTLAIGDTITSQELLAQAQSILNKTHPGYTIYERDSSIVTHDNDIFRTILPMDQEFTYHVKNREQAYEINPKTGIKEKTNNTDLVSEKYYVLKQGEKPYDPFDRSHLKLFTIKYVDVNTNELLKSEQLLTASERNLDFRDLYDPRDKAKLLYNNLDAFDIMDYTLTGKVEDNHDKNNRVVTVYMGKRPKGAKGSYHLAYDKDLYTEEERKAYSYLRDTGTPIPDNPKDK

Streptococcus = test: Group A Streptococcus viability loss, dose response, counter-screen for streptokinase expression inhibitor project, luminescence, BacTiterGlo (AID 1915); type: functional, organism-based;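 note: potency for reduction of bacterial viability or growth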
[5] = nonselective inhibitors of cellular cAMP signaling, dose response, counter-screen for MC4R biased antagonist project, cell-based, TR-FRET cAMP detection (AID 602305); type: functional;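 note: U2OS cells stimulated with forskolin near its EC80 as the cAMP inducer; potency is for inhibition of forskolin-stimulated cAMP signaling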
[6] = system: Streptococcus sp. 'group A'; test: growth inhibition of control SK(-) GAS strain, dose response, counter-screen for streptokinase expression inhibitor project, luminescence, kanamycin, BacTiterGlo, confirmation (AID 1900); type: functional, organism-based
[7] = Luminescence Cell-Based Dose Retest to Confirm Inhibitors of Cancer Stem Cells. [Related pubchem assays (depositor defined):AID2717, AID2721]; type: functional; details: Homo sapiens
[8] = molecular target: Protein disulfide-isomerase (Homo sapiens, UniProt P07237); test: PDI inhibitors, insulin aggregation turbidity, dose response, biochemical, absorbance, cherry-picked samples (AID 602350); type: functional
Protein Wnt-3a = Protein Wnt-3a (Mus musculus, UniProt P27467); test: Wnt3a-driven reporter signaling inhibition, dose response, selectivity assay for Gli-SUFU antagonist project, Wnt-LIGHT cells, luminescence (AID 651570); type: functional; details: read-out: IC50_Mean;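 note: Wnt-LIGHT reporter cells stimulated with conditioned medium from Wnt3a-producing cells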
Protein Wnt-3a, sequence (P27467 whole entry): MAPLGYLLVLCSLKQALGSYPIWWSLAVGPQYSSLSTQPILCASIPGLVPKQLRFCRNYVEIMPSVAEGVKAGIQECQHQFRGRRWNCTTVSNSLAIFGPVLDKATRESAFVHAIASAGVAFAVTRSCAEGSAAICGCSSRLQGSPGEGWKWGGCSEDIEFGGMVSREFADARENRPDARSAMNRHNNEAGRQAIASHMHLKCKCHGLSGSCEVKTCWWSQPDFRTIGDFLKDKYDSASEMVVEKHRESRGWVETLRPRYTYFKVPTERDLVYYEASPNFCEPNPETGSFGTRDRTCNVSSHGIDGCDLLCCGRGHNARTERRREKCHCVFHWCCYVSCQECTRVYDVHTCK

Protein disulfide-isomerase, sequence (P07237 whole entry): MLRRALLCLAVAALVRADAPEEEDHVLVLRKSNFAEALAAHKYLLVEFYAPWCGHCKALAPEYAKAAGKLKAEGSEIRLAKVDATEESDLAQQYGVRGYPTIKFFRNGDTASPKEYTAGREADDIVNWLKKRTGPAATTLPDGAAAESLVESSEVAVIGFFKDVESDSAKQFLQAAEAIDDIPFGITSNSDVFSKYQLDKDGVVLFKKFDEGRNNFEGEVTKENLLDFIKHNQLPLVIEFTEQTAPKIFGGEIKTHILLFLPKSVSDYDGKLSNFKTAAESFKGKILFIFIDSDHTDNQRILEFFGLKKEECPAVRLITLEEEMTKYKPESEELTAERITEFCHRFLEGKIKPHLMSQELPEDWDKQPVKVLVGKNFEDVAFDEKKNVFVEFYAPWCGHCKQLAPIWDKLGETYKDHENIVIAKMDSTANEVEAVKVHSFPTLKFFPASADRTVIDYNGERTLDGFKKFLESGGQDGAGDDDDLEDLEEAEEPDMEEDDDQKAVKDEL
Melanocortin receptor 4, sequence (P32245 whole entry): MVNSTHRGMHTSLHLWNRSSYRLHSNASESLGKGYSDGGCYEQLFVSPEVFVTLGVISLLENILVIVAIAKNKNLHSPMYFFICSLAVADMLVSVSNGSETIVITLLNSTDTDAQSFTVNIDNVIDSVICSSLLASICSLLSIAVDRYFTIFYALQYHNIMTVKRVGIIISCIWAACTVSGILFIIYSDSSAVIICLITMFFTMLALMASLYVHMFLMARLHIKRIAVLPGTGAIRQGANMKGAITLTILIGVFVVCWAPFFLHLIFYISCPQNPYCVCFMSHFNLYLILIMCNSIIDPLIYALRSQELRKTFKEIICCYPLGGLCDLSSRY

Q: For COc1ccc(-c2cn3c([n+]2-c2ccc(C)cc2)CCCCC3)cc1, which EC50 [1] is on record?
A: > 60 µM (not active)

Q: And the EC50 [2]?
A: 0.171 µM (active)

Q: What about the IC50 (Jurkat) of the same compound?
A: > 80 µM (inactive)

Q: What about the AC50 (INS1) of the same compound?
A: 0.348 µM (active)

Q: What about the EC50 [3] of the same compound?
A: 9.77 µM (active)

Q: What about the IC50 [4] of the same compound?
A: > 80 µM (inactive)

Q: With COC(=O)c1cc(S(=O)(=O)n2nc(C)c(Br)c2C)c(Cl)cc1Cl as the compound, how does the IC50 (Melanocortin receptor 4) read?
A: > 64.6 µM (inactive)

Q: What about the EC50 (Streptokinase A) of the same compound?
A: > 150 µM (not active)

Q: And the EC50 (Streptococcus)?
A: 10.4 µM (active)

Q: What about the IC50 [5] of the same compound?
A: > 64.6 µM (inactive)

Q: What about the EC50 [6] of the same compound?
A: 1.8 µM (active)

Q: Which AC50 [7] does the source give for Oc1ccc(/C=C/c2nc(-c3ccccc3O)n(-c3ccccc3)n2)cc1 here?
A: 6.8 µM (active)

Q: And the AC50 [8]?
A: 18.8 µM (active)

Q: For CCC(C)CCN1C(N(C)C)=NC[C@@H]1CC(C)C (some centres undefined), which IC50 (Protein Wnt-3a) is on record?
A: 6.72 µM (active)
